Measured values from PMC5382548 (Scientific Reports, 2015).
Like-named read-outs stand apart in the source and are kept apart here.

How the values were obtained:
SW620 (metastatic colon) = test: MTS short-term cytotoxicity assay, SW620; assay type: cell-based; details: Homo sapiens, read-out: IC50 SW620
Method: (§1) Short-term anti-proliferative assays were carried out by two different assays using a panel of human cancer and non-malignant human cell lines. […] The transformed human embryonic kidney cell line HEK293T (wt KRAS) was sensitive to all tested drugs, including TMPyP4, a cationic porphyrin established as a G4 ligand, as well as the anticancer drug 5-fluorouracil (5-FU).
(§2) HCT116 human colon carcinoma cells, SW620 human colorectal adenocarcinoma and HEK293 T human embryonic kidney cells were grown in Dulbecco's modified Eagle's medium (DMEM) supplemented with 10% fetal bovine serum, and 1% antibiotic/antimycotic (Invitrogen, Grand Island, NY, USA) and maintained at 37°C in a humidified atmosphere of 5% CO2. Cells were seeded in 96 well plates at 5.000 cells/well. Twenty-four hours after cell plating, media was removed and replaced with fresh media containing test compounds and 5-FU (Sigma), a common cytotoxic agent used in colon cancer treatmen, or vehicle control (DMSO). Following 72 h of compound exposure, cell viability was evaluated using the CellTiter 96 AQueous Non-Radioactive Cell Proliferation Assay (Promega, Madison, WI, USA), using 3-(4,5-dimethylthiazol-2-yl)-5-(3-carboxymethoxyphenyl)-2-(4-sulfophenyl)-2H-tetrazolium, inner salt (MTS) as previously described. Cell viability data were expressed as mean ± SEM or mean ± SD from at least three independent experiments. IC50 and IC65 values were determined using GaphPad Prism v.5.00 (GraphPad Software). (Performed at Cell Function and Therapeutic Targeting Group, iMed.ULisboa)

[1] = tested on: HEK293T (embryonic kidney); test: MTS short-term cytotoxicity assay, HEK293T; assay type: cell-based; details: Homo sapiens, HEK-293T, 72 h, read-out: IC50 HEK293T
Method: as §1, §2

[2] = tested on: F21T G4 (human telomeric sequence); test: FRET melting assay, F21T telomeric G4; assay type: binding; details: G4 0.2 μM, ligand 1 μM
Method: Two compounds 2d and 3e were selected and evaluated for their ability to stabilize the 32-mer sequence in the NHE of the human KRAS promoter (KRAS32R)[12], two G4 motifs in the 5′UTR of KRAS mRNA (UTR-1 and UTR-2)[24] and a 21-mer DNA G4 from the human telomeric sequence (F21T). The KRAS32R sequence has been described as forming two G4 structures which exist in equilibrium. One sequence folds into a G4 (Q1) with a Tm of ~55°C that is disrupted on increasing the temperature and then, the full-length 32-mer sequence folds into a new G4 (Q2, Tm of ~72°C)[13]. In our assay, the KRAS32R sequence (in the presence or absence of IQcs) folded in a single G4 structure (Tm ≈ 54°C), as shown by the single inflection for the first derivative of the FRET melting data (Sup. Inf.; Figure S4). This monophasic behaviour was also observed in the presence of TMPyP4[13].
(§3) Oligonucleotide sequences were purchased from Eurofins MWG Synthesis GmbH, Germany or STAB VIDA Genomics Lab, Caparica, Lisbon, Portugal. The labelled oligonucleotides used in the FRET assays had attached the donor fluorophore FAM (6-carboxyfluorescein) and the acceptor fluorophore TAMRA (6-carboxytetramethylrhodamine): KRAS21R: 5′-FAM-[…]-TAMRA-3′; KRAS32R: 5′-FAM-[…]-TAMRA-3′; UTR-1: 5′-FAM-GCGGCGGCGGAGG-TAMRA-3′; UTR-2: 5′-FAM-[…]-TAMRA-3; T-Loop:5′-FAM-[…]-TAMRA-3′; F21T: 5′-FAM-[…]-TAMRA-3′. Non-labelled oligonucleotides were used in FRET competition assays and in the spectroscopic studies: ds26: - d(5′-CAATCGGATCGAATT CGATCCGATTG-3′); KRAS21R: 5′-[…]-3′; HT21: 5′-[…]-3′. Each oligonucleotide was initially diluted to a storage solution at 100 μM in nuclease-free water (not DEPC-treated), purchased from Ambion Applied Biosystems UK.
(§4) The ability of indolo[3,2-c]quinolines to stabilize DNA sequences was investigated using a Fluorescence Resonance Energy Transfer (FRET) assay as reported elsewhere.

KRAS21R G4 = test: FRET melting assay, KRAS21R G4; assay type: binding, human; details: G4 0.2 μM, ligand 1 μM, K-cacodylate buffer pH 7.4, 60 mM K+
Method: Fluorescence resonance energy transfer (FRET) studies with DNA sequences labelled at the 5′ and 3′ ends, were conducted to evaluate the G4 DNA stabilizing properties of IQcs (at 0.1 to 5 μM ligand concentrations). The G4-forming sequence KRAS21R[11], together with T-loop, a 26-mer hairpin double-stranded DNA (ds-DNA) sequence were used in the first screening assay. Reproducible IQc dose-dependent melting curves (Sup. Inf.; Figure S3) and stabilization temperature (ΔTm) values were obtained (Figure 2 and Table S5).
Figure 2 FRET stabilization temperatures (ΔTm) of KRAS21R G4 and hairpin ds-DNA (T-loop) at 0.2 μM, in K-cacodylate buffer (pH = 7.4, 60 mM K^+), stabilized by IQc derivatives and TMPyP4 at 1 μM. ^a) SD ≤ 0.2°C. TEXT PRINTED IN THE PICTURE: TMPyP4: ΔTm / °C ^a) (T-Loop): 16.0; ΔTm / °C ^a) (KRAS21R): 25.1 | 3e: ΔTm / °C ^a) (T-Loop): 6.5; ΔTm / °C ^a) (KRAS21R): 22.0 | 3d: ΔTm / °C ^a) (T-Loop): 5.6; ΔTm / °C ^a) (KRAS21R): 19.9 | 2d: ΔTm / °C ^a) (T-Loop): 6.1; ΔTm / °C ^a) (KRAS21R): 15.1 | 2a: ΔTm / °C ^a) (T-Loop): 1.5; ΔTm / °C ^a) (KRAS21R): 4.4 […]
as §3, §4
Figure S3 (cont.)| Concentration-dependent (0.1, 0.5, 1, 2, 3, 4 and 5 µM) FRET melting profiles of G4 structures and T-loop DNA with indolo[3,2-c]quinoline derivatives 1a, 2a-g and 3d-j in K-cacodylate buffer (pH 7.4, 60 mM K+). […]
Table S5 | FRET stabilization temperatures (ΔTm) of G4s sequences and ds-DNA (0.2 µM) stabilized by […]

Row | Structure (SMILES) | IC50 (SW620 (metastatic colon); SW-620, MTS assay, 72 h) [nM] | IC50 ([1]; MTS assay) [nM] | ΔTm F21T [2] [°C] | FRET stabilization temperature ΔTm (KRAS21R) (KRAS21R G4) [°C] | IC50 (SW620 (metastatic colon); SW-620, 72 h) [nM] | IC50 [1] [nM]
1 | Cn1cc2c3ccccc3nc-2c2cc(Br)ccc21 [2a, 2-bromo-5-methyl-indolo[3,2-c]quinoline] | 200 | 300 | 5.6 | – | – | –
2 | CCN(CC)CCCNc1ccc2c(c1)c1[nH]c3ccccc3c1c[n+]2C [2d] | 590 | 640 | 17.7 | 15.1 | – | –
3 | CCN(CC)CCCNc1ccc2[nH]c3c(c[n+](C)c4ccc(NCCCN(CC)CC)cc34)c2c1.[Cl-] [3d] | 4740 | 6570 | – | 19.9 | – | –
4 | CCN(CC)CCCNc1ccc2c(c1)[nH]c1c2c[n+](C)c2ccc(NCCCN(CC)CC)cc12.[Cl-] [3e] | 1790 | 3120 | 30.7 | 22.0 | – | –
5 | C[n+]1ccc(-c2c3nc(c(-c4cc[n+](C)cc4)c4ccc([nH]4)c(-c4cc[n+](C)cc4)c4ccc([nH]4)c(-c4cc[n+](C)cc4)c4nc2C=C4)C=C3)cc1 [TMPyP4, reference compound] | – | – | – | 25.1 | > 20000 | 2970
